Assay results reported in patent US20250195485A1, “PROPIONIC ACID DERIVATIVE AND MEDICAL USE THEREOF” (Xizang Haisco Pharmaceutical Co., Ltd., priority 2021, published 2025).

What was measured:
integrin α4β7 = biological target: T1, integrin α4β7 (Homo sapiens, UniProt P13612+P26010); assay: Integrin α4β7-mediated cell adhesion assay (RPM18866 cells on MAdCAM-1); type: cell-based; details: for IC50: RPMI-8866 cells adhering to MAdCAM-1; for α4β1/α4β7: selectivity ratio of α4β1 IC50 to α4β7 IC50 in cell adhesion
T1 sequence (P13612 34-1032): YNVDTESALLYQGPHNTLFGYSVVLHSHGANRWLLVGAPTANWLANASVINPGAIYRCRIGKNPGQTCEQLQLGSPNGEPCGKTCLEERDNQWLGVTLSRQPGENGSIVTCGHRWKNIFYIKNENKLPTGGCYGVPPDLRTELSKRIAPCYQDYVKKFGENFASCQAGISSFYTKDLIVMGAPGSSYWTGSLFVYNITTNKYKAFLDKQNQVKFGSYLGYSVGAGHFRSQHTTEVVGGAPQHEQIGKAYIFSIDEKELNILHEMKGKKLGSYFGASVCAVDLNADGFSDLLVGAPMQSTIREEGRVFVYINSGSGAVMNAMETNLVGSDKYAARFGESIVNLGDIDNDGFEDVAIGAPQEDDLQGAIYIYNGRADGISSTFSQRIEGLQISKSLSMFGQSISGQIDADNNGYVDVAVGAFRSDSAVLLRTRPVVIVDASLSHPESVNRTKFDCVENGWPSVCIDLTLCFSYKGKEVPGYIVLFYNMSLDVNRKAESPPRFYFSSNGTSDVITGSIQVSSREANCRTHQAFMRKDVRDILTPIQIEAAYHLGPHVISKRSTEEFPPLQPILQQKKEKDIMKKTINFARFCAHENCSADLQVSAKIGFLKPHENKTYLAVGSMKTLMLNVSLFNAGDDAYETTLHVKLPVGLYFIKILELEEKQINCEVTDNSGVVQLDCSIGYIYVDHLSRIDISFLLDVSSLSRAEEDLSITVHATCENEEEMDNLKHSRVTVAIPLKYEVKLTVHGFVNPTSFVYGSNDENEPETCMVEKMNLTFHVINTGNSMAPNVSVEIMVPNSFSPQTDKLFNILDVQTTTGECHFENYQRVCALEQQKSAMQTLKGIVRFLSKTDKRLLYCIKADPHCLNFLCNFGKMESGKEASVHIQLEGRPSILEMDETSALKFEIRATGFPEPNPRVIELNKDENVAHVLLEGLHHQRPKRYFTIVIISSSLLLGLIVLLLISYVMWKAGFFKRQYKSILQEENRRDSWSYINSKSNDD
T1 sequence (P26010 20-798): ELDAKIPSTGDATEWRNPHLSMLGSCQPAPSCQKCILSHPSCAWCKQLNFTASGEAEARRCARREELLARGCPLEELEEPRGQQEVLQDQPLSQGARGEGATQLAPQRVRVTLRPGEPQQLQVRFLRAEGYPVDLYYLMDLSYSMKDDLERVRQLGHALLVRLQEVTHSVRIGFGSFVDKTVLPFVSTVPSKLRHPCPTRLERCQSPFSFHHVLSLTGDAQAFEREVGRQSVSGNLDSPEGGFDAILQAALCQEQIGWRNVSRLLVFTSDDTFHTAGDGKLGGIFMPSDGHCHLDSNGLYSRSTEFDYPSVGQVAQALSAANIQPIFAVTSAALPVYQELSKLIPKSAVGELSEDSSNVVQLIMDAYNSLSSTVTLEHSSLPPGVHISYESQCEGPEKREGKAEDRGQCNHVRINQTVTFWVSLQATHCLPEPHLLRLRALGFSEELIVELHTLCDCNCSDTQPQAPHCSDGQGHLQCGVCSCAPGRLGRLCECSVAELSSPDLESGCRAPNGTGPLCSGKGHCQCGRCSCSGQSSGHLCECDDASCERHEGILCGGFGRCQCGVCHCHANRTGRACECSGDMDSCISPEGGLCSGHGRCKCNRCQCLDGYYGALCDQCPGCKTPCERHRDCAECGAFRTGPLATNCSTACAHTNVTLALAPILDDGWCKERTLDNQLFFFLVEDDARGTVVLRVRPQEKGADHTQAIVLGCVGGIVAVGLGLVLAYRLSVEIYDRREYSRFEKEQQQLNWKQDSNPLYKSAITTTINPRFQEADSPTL
Procedure: MAdCAM-1 was formulated with TBS buffer to a final concentration of 2 μg/ml, 50 μl of the solution was transferred to a 96-well plate, and the plate was coated with same at 4° C. overnight. The plate was washed with TBS buffer three times, then 150 μl of a blocking solution (TBS buffer containing 1% BSA) was added, and the plate was blocked at 37° C. for 1 h. […] 50 μl of the cell suspension was transferred to a 96-well plate so that the cell density reached 2×10^5 cells/well. Then 1 μl of the compound at different concentrations or DMSO was added and the plate was incubated at 37° C. for 1 h or 2 h. The plate was washed with TBS buffer to remove non-adherent cells. 50 μl of a substrate (4-nitrophenyl-N-acetyl-β-D-glucosaminide) was added and the plate was incubated at 37° C. for 2 h. […] The IC50 value was calculated using GraphPad Prism 6 software.

integrin α4β1 = biological target: T2, integrin α4β1 (Homo sapiens, UniProt P05556+P13612); assay: Integrin α4β1-mediated cell adhesion assay (Jurkat cells on VCAM); type: cell-based; details: Jurkat cells adhering to VCAM-1
T2 construct: Jurkat cells were collected, washed twice using DPBS buffer; endogenous in cells; host or cells: Jurkat cells
T2 sequence (P05556 21-798, one chain of several): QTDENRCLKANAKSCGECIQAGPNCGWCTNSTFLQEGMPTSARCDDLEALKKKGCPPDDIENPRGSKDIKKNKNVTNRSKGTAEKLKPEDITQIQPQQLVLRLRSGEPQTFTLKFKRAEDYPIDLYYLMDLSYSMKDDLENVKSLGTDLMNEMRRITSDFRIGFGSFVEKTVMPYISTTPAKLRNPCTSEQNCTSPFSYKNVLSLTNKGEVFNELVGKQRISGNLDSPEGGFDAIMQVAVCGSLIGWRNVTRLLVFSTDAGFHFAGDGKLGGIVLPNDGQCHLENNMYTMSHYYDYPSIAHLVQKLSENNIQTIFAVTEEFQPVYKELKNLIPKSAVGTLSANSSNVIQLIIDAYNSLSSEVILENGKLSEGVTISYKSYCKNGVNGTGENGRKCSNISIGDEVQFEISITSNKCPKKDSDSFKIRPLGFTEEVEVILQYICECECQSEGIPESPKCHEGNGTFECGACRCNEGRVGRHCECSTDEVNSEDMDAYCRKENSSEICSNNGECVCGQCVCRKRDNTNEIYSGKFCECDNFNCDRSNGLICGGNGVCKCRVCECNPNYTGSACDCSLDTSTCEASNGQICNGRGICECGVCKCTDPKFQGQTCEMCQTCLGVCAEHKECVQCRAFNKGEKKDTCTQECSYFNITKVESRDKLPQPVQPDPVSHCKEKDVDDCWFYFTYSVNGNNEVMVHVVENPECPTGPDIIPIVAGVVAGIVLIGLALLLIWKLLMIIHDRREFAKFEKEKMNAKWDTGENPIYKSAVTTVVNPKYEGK
Procedure: VCAM was formulated into a final concentration of 0.5 μg/ml with a coating buffer, 50 μl of the solution was transferred to a 96-well plate, and the plate was coated with same at 4° C. overnight. The plate was washed with coating buffer three times, then 150 μl of a blocking solution (coating buffer containing 1% BSA) was added, and the plate was blocked at 37° C. for 1 h. […] 50 μl of the cell suspension was transferred to a 96-well plate so that the cell density reached 2×10^5 cells/well. Then 1 μl of the test compound at different concentration or DMSO was added and the plate was incubated at 37° C. for 1 h. The plate was washed with coating buffer to remove non-adherent cells. 50 μl of a substrate (4-nitrophenyl-N-acetyl-β-D-glucosaminide) was added and the plate was incubated at 37° C. for 2 h. […] The […] was calculated using GraphPad Prism 6 software. The results are shown in Table 1. • Coating buffer: DMEM+20 mM HEPES+0.4 mM MnC2 • Action buffer: DMEM+20 mM HEPES+0.1% BSA+0.4 mM MnCl2 • DMEM: dulbecco's modified eagle medium; • HEPES: 2-[4-(2-hydroxyethyl)piperazin-1-yl]ethanesulfonic acid

[1] = Pharmacokinetic test in mice; type: in vivo; details: male BALB/c mice
Procedure: Experimental animals: male BALB/c mice, 20-25 g, 6 mice/compound. Purchased from Chengdu Ddossy Experimental Animals Co., Ltd.
Test design: on the day of the test, 6 BALB/c mice were randomly grouped according to their body weights. The animals were fasted with water available for 12 to 14 h one day before the administration, and were fed 4 h after the administration.
Before and after the administration, 0.06 mL of blood was taken from the orbit of the animals under isoflurane anesthesia and placed in an EDTAK2 centrifuge tube. The blood was centrifuged at 5000 rpm and 4° C. for 10 min to collect the plasma. The blood collection time points for the intravenous group and intragastric administration group were: 0 min, 5 min, 15 min, 30 min, 1 h, 2 h, 4 h, 6 h, 8 h, and 24 h. Before analysis and detection, all samples were stored at −80° C. The samples were analyzed quantitatively by LC-MS/MS.

| Compound | IC50 (integrin α4β7) [nM] | α4β1/α4β7 (integrin α4β7) | IC50 (integrin α4β1) [nM] | further results |
| --- | --- | --- | --- | --- |
| Cc1ccn(C(CC(C)C)C(=O)NC(CC(=O)O)c2cc(-c3c(C)cccc3C)n3ccnc3c2)c(=O)c1 (stereo not shown) [Compound 9] | < 10 | – | – | – |
| Cc1cc(-c2c(C)cccc2C)cc(C(CC(=O)O)NC(=O)C(CC(C)C)n2cc(CCN3CC(CF)C3)cc(F)c2=O)c1F (stereo not shown) [Compound 13] | < 10 | – | – | – |
| C#Cc1ncc(C(CC(=O)O)NC(=O)C(CC(C)C)n2cc(CCN3CC(F)C3)cc(F)c2=O)cc1-c1c(C)cccc1C (stereo not shown) [Compound 14] | < 0.5 | >500 | 126 | – |
| C#Cc1cc(-c2c(C)cc(F)cc2C)cc(C(CC(=O)O)NC(=O)C(CC(C)C)n2cc(CCN(C)C)c(C(F)(F)F)cc2=O)c1F (stereo not shown) [Compound 26-2] | < 0.5 | – | – | – |
| Cc1cc(F)cc(C)c1-c1cc(C(CC(=O)O)NC(=O)C(CC(C)C)n2cc(CCN(C)C)c(C(F)(F)F)cc2=O)cc2c1CCC2 (stereo not shown) [Compound 30-2] | < 0.5 | 1011.7 | 91.1 | – |
| Cc1cc(-c2c(C)cc(F)cc2C)cc([C@H](CC(=O)O)NC(=O)[C@H](CC(C)C)n2cc(CCN(C)C)c(C(F)(F)F)cc2=O)c1F [Control compound A, reference compound] | – | – | – | F ([1]; intragastrically 10 mg/kg vs intravenously 1 mg/kg): 28.2%; clearance ([1]; mouse, intravenous, plasma, groups: intravenously 1 mg/kg, intragastrically 10 mg/kg (route for this parameter not stated)): 56 mL/min/kg; AUC ([1]; mouse, plasma, oral absorption results, groups: intravenously 1 mg/kg, intragastrically 10 mg/kg (route for this parameter not stated)): 830 ng·h/mL |
| Cc1cc(F)cc(C)c1-c1cc(C(CC(=O)O)NC(=O)C(CC(C)C)n2cc(CCN(C)C)c(C(F)(F)F)cc2=O)cc2nccn12 (stereo not shown) [Trifluoroacetate of compound 20-2] | < 0.5 | >100 | 36.6 | – |
| Cc1cc(C)c(-c2cc(C(CC(=O)O)NC(=O)C(CC(C)C)n3cc(CCN(C)C)c(C(F)(F)F)cc3=O)cn3ccnc23)c(C)c1 (stereo not shown) [Trifluoroacetate of compound 22-2] | < 10 | – | – | – |
